Experimental data from the NIST ThermoML archive (doi:10.1021/je050050p).

Test: xn = mol fraction of the nth substance listed
Settings: Liquid, Vibrating tube method

CN(C)C=O [dimethylformamide] + O=C=O
Settings	mass density [kg/m3]
333 K, 18021 kPa, x2 = 0.4502	942.21
333 K, 19006 kPa, x2 = 0.4502	943.4
333 K, 19008 kPa, x2 = 0.4068	942.75
333 K, 20008 kPa, x2 = 0.4068	943.81
333 K, 20021 kPa, x2 = 0.4502	944.58
333 K, 20981 kPa, x2 = 0.4068	944.88
333 K, 21001 kPa, x2 = 0.4502	945.74
333 K, 22001 kPa, x2 = 0.4068	945.96
333 K, 22027 kPa, x2 = 0.4502	946.9
333 K, 22996 kPa, x2 = 0.4068	947.02
333 K, 23019 kPa, x2 = 0.4502	948.04
333 K, 24013 kPa, x2 = 0.4068	948.07
333 K, 24013 kPa, x2 = 0.4502	949.18
333 K, 25001 kPa, x2 = 0.4068	949.09
333 K, 25015 kPa, x2 = 0.4502	950.28
342.89 K, 10992 kPa, x2 = 0.6235	886.15
342.89 K, 12012 kPa, x2 = 0.6235	889.74
342.89 K, 13020 kPa, x2 = 0.6235	893.05
342.89 K, 14010 kPa, x2 = 0.6235	896.16
342.89 K, 15018 kPa, x2 = 0.6235	899.25
342.89 K, 16005 kPa, x2 = 0.6235	902.14
342.89 K, 17023 kPa, x2 = 0.6235	905.02
342.89 K, 18015 kPa, x2 = 0.6235	907.74
342.89 K, 19032 kPa, x2 = 0.6235	910.42
342.89 K, 20044 kPa, x2 = 0.6235	913.05
342.89 K, 21008 kPa, x2 = 0.6235	915.46
342.89 K, 21997 kPa, x2 = 0.6235	917.87
342.89 K, 23022 kPa, x2 = 0.6235	920.31
342.89 K, 24005 kPa, x2 = 0.6235	922.57
342.89 K, 25050 kPa, x2 = 0.6235	924.92
342.92 K, 9047 kPa, x2 = 0.4268	916.56
342.92 K, 10045 kPa, x2 = 0.4268	917.97
342.92 K, 11042 kPa, x2 = 0.4268	919.28
342.92 K, 12037 kPa, x2 = 0.4268	920.66
342.92 K, 13020 kPa, x2 = 0.4268	921.93
342.92 K, 13997 kPa, x2 = 0.4268	923.27
342.92 K, 14981 kPa, x2 = 0.4268	924.53
342.92 K, 15034 kPa, x2 = 0.9311	711.76
342.92 K, 15061 kPa, x2 = 0.8091	832.64
342.92 K, 15988 kPa, x2 = 0.8091	839.54
342.92 K, 15991 kPa, x2 = 0.4268	925.79
342.92 K, 16002 kPa, x2 = 0.9311	729.81
342.92 K, 17002 kPa, x2 = 0.4268	927.11
342.92 K, 17015 kPa, x2 = 0.9311	745.62
342.92 K, 17027 kPa, x2 = 0.8091	845.55
342.92 K, 18016 kPa, x2 = 0.8091	851.1
342.92 K, 18024 kPa, x2 = 0.9311	759.3
342.92 K, 18025 kPa, x2 = 0.4268	928.36
342.92 K, 19002 kPa, x2 = 0.9311	770.95
342.92 K, 19028 kPa, x2 = 0.8091	856.53
342.92 K, 19044 kPa, x2 = 0.4268	929.6
342.92 K, 19999 kPa, x2 = 0.4268	930.83
342.92 K, 20000 kPa, x2 = 0.9311	781.74
342.92 K, 20057 kPa, x2 = 0.8091	861.77
342.92 K, 20984 kPa, x2 = 0.4268	931.96
342.92 K, 21012 kPa, x2 = 0.8091	866.52
342.92 K, 21034 kPa, x2 = 0.9311	791.87
342.92 K, 21992 kPa, x2 = 0.8091	871.08
342.92 K, 22002 kPa, x2 = 0.4268	933.2
342.92 K, 22002 kPa, x2 = 0.9311	800.53
342.92 K, 22999 kPa, x2 = 0.8091	875.54
342.92 K, 23014 kPa, x2 = 0.9311	809.02
342.92 K, 23042 kPa, x2 = 0.4268	934.44
342.92 K, 23981 kPa, x2 = 0.4268	935.53
342.92 K, 24017 kPa, x2 = 0.9311	816.82
342.92 K, 24029 kPa, x2 = 0.8091	879.9
342.92 K, 25008 kPa, x2 = 0.9311	824.06
342.92 K, 25020 kPa, x2 = 0.8091	883.99
342.92 K, 25047 kPa, x2 = 0.4268	936.75
342.93 K, 7012 kPa, x2 = 0.2876	914.85
342.93 K, 7999 kPa, x2 = 0.2876	915.95
342.93 K, 9007 kPa, x2 = 0.2876	917.04
342.93 K, 10005 kPa, x2 = 0.2876	918.13
342.93 K, 11003 kPa, x2 = 0.2876	919.16
342.93 K, 12011 kPa, x2 = 0.2876	920.23
342.93 K, 13016 kPa, x2 = 0.2876	921.27
342.93 K, 14012 kPa, x2 = 0.2876	922.31
342.93 K, 15013 kPa, x2 = 0.2876	923.35
342.93 K, 16000 kPa, x2 = 0.2876	924.33
342.93 K, 17024 kPa, x2 = 0.2876	925.34
342.93 K, 18001 kPa, x2 = 0.2876	926.31
342.93 K, 19036 kPa, x2 = 0.2876	927.32
342.93 K, 20015 kPa, x2 = 0.2876	928.27
342.93 K, 21009 kPa, x2 = 0.2876	929.23
